Reference: ChEMBL document CHEMBL1130094, “Structure-activity relationships for a novel series of pyrido[2,3-d]pyrimidine tyrosine kinase inhibitors” (J Med Chem, 1997)

Columns and labels:
[1] = molecular target: T1, Platelet-derived growth factor receptor (PDGFr) (Rattus norvegicus, UniProt P20786+Q05030); test: Inhibition of platelet derived growth factor (PDGF) stimulated PDGF-receptor autophosphorylation in rat aortic vascular smooth muscle cells (RAVSMCs)
[2] = molecular target: T1, Platelet-derived growth factor receptor (PDGFr); test: Inhibition of Platelet-derived growth factor receptor (PDGFr) tyrosine kinase in rat aortic vascular smooth muscle cells (RAVSMCs).
Insulin receptor = Insulin receptor (Homo sapiens, UniProt P06213); test: Inhibition of insulin receptor (InsR) tyrosine kinase
[3] = The half life in rat plasma after intravenous administration; assay type: ADME, organism-based
[4] = molecular target: T2, Epidermal growth factor receptor (Homo sapiens, UniProt P00533); test: Inhibition of Epidermal growth factor receptor (EGFr) tyrosine kinase
[5] = molecular target: T3, Fibroblast growth factor receptor (Homo sapiens, UniProt P22607+P11362+P22455+P21802); test: Inhibition of Fibroblast growth factor receptor (FGFr) tyrosine kinase; assay type: protein assay
[6] = molecular target: Proto-oncogene tyrosine-protein kinase Src (Homo sapiens, UniProt P12931); test: Inhibition of C-src tyrosine kinase
[7] = molecular target: T2, Epidermal growth factor receptor; test: Inhibition of epidermal growth factor receptor (EGFr) tyrosine kinase
[8] = molecular target: T3, Fibroblast growth factor receptor; test: Inhibition of fibroblast growth factor receptor (FGFr) tyrosine kinase; assay type: protein assay
[9] = Inhibition of vascular smooth muscle cell (VSMC) proliferation at day 8; assay type: functional; settings: Rattus norvegicus, 192 h

Insulin receptor, sequence (P06213 28-758 limits assumed): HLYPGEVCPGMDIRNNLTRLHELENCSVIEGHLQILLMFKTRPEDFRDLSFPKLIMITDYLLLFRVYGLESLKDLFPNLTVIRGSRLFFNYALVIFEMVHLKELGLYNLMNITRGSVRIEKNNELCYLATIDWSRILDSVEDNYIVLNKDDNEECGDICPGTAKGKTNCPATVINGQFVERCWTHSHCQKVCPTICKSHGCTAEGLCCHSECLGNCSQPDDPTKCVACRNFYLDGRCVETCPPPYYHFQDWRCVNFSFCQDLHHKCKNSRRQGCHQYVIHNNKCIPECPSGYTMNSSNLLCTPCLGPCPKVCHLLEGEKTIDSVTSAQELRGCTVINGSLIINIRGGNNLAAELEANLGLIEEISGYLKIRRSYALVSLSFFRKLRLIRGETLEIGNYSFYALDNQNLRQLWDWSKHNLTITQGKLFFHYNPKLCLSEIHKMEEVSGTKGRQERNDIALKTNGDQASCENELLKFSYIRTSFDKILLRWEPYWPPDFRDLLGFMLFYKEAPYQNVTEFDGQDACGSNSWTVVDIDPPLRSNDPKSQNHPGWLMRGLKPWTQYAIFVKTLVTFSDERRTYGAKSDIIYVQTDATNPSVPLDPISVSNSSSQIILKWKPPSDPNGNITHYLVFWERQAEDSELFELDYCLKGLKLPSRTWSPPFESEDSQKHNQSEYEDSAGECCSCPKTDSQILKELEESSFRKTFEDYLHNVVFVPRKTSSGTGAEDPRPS
Insulin receptor, sequence (P06213 763-1382 limits assumed): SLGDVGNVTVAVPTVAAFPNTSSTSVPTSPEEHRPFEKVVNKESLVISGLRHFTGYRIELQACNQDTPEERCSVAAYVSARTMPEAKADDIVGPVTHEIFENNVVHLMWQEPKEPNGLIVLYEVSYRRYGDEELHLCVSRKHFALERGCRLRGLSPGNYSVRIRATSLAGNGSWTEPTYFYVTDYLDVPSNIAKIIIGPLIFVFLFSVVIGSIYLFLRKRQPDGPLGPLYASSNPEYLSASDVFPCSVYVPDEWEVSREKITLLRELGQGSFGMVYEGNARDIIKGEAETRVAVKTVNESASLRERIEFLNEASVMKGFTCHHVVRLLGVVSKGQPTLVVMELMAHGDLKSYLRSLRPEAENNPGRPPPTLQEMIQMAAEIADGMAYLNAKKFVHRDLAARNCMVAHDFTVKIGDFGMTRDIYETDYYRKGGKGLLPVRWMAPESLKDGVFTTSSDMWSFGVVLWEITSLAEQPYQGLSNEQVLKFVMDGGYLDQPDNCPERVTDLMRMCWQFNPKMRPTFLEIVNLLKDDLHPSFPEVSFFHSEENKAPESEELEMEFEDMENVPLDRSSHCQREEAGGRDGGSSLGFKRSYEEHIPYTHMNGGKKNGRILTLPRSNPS
T2 sequence (P00533 whole entry): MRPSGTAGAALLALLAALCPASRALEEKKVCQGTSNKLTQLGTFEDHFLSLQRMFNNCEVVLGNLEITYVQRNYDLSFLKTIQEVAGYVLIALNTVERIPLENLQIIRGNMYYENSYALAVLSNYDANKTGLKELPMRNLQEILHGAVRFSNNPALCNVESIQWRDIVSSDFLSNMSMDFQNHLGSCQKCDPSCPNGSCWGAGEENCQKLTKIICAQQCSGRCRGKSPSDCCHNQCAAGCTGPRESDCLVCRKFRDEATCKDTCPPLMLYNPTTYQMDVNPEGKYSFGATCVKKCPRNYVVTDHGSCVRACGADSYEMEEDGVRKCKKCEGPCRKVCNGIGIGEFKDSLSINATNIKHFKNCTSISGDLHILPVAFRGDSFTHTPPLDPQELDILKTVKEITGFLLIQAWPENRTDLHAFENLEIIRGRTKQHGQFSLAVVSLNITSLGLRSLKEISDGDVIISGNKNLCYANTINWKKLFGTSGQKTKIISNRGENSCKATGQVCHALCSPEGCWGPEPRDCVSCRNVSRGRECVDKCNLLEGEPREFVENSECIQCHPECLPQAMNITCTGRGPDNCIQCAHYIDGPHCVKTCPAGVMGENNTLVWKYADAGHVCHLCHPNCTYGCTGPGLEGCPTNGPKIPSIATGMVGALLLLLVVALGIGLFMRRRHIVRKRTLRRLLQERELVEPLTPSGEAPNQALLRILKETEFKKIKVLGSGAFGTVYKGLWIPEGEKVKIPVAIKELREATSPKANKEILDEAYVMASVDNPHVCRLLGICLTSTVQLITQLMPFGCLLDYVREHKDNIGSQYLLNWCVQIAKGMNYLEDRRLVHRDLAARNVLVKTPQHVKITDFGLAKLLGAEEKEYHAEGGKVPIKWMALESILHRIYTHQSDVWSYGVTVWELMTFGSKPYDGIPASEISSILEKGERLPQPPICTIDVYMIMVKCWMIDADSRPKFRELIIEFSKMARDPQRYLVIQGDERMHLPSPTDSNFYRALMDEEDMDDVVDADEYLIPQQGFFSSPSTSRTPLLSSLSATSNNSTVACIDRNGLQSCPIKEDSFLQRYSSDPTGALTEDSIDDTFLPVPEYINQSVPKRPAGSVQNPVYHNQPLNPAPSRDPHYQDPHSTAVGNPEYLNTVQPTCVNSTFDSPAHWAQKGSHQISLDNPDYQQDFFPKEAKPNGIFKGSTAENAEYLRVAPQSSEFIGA
Proto-oncogene tyrosine-protein kinase Src, sequence (P12931 2-536 limits assumed): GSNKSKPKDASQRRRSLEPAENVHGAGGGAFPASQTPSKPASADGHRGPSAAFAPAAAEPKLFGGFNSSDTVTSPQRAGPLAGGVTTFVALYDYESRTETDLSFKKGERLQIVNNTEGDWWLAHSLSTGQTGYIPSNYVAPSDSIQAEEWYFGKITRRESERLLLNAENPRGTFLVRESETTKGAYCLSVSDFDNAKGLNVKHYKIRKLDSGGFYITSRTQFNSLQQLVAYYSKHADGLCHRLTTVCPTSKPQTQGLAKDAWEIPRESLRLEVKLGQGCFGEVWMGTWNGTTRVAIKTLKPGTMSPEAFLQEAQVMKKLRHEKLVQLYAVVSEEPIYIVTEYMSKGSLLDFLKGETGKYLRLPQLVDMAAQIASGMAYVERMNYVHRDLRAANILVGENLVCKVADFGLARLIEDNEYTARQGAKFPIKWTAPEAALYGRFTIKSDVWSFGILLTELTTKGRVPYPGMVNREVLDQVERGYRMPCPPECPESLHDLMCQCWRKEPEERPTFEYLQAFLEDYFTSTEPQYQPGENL

SMILES | IC50 [1] [nM] | IC50 [2] [nM] | IC50 (Insulin receptor) [nM] | half-life [3] [h] | IC50 [4] [nM] | IC50 [5] [nM] | IC50 [6] [nM] | IC50 [7] [nM] | IC50 [8] [nM] | IC50 [9] [nM]
CCNC(=O)Nc1nc2nc(NCCCCN(CC)CC)ncc2cc1-c1c(Cl)cccc1Cl | 250 | 190 |  |  |  |  |  |  |  | 
Cc1cccc(C)c1-c1cc2cnc(N)nc2nc1NC(=O)NC(C)(C)C |  |  | > 50000 |  | 610 | 400 |  |  |  | 
CC(C)(C)NC(=O)Nc1nc2nc(N)ncc2cc1-c1c(Cl)cccc1Cl | 630 | 1110 | > 50000 |  |  | 130 | 220 |  |  | 
COc1cc(OC)cc(-c2cc3cnc(N)nc3nc2NC(=O)NC(C)(C)C)c1 |  |  |  |  |  | 60 |  |  |  | 

Now from value to compound, other results behind:

IC50 [1] [nM] | IC50 [2] [nM] | IC50 (Insulin receptor) [nM] | half-life [3] [h] | IC50 [4] [nM] | IC50 [5] [nM] | IC50 [6] [nM] | IC50 [7] [nM] | IC50 [8] [nM] | SMILES | IC50 [9] [nM]
 |  | > 50000 | 2.69 |  |  |  |  |  | CN1CCN(CCCNc2ncc3cc(-c4c(Cl)cccc4Cl)c(NC(=O)NC(C)(C)C)nc3n2)CC1 | 
4300 | > 50000 | > 50000 |  | 7000 | 140 | 2200 |  |  | Cc1cc(C)c(C)c(-c2cc3cnc(NCCCN4CCN(C)CC4)nc3nc2NC(=O)NC(C)(C)C)c1C | 
> 50000 | > 50000 | > 50000 |  |  |  | > 50000 |  |  | Cc1cc(C)c(C)c(-c2cc3cnc(N)nc3nc2NC(=O)NC(C)(C)C)c1C | 
1800 | 660 | > 50000 |  | 6200 | 82 |  |  |  | CCN(CC)CCCNc1ncc2cc(-c3c(Cl)cccc3Cl)c(NC(=O)NC(C)(C)C)nc2n1 | 
 | 4670 | > 50000 |  |  |  | > 50000 | 5530 | 3710 | CC(C)(C)NC(=O)Nc1nc2nc(N)ncc2cc1-c1ccccc1 | 
450 | 310 | > 50000 |  |  |  | 44 |  |  | CCN(CC)CCCCNc1ncc2cc(-c3c(Cl)cccc3Cl)c(NC(=O)NC(C)(C)C)nc2n1 | 300
3730 | 1300 | > 50000 |  | 1360 | 130 |  |  |  | CCNC(=O)Nc1nc2nc(N)ncc2cc1-c1c(Cl)cccc1Cl | 
